We go through one substance from patent US20230365673A1, “MEANS FOR REDUCING RADIO- AND CHEMOTHERAPY RESISTANCE AND ADVERSE EFFECTS” (JOHANN WOLFGANG GOETHE-UNIVERSITÄT FRANKFURT AM MAIN, priority 2020, published 2023).

The test deals with APTKA orthotopic tumours. Put plainly: Orthotopic APTKA organoid rectal cancer model with local fractionated radiotherapy (5×2 Gy). The format is in vivo, C57BL/6 mice. The text has this:
(A and B) Schematic representation of the orthotopic transplantation of APTKA & APTK mouse organoids into C57BL/6 mice followed by local fractionated radiotherapy (5×2 Gy) of established tumours and end point colonoscopy 21 days after the last irradiation. (C) Heat map analysis of RNA sequencing data of APTKA (n=4) and APTK (n=5) orthotopic tumours. (D) GSEA of CAF signature using RNA sequencing data of APTKA and APTK orthotopic tumours. Significant NES≤−1; FDR q-value<0.05. (E) H&E stained sections of APTK and APTKA untreated and irradiated orthotopic tumours 21 days after last irradiation. Scale bars=500 μm. (F and G) Overall tumour (mm3) and invasive area (%) of untreated (n=5) and irradiated (n=6) APTK orthotopic tumours. Data are mean±SD. *** p<0.001 and **** p<0.0001 by t-test. (H and I) Overall tumour (mm3) and invasive area (%) of untreated (n=5) and irradiated (n=5) APTKA orthotopic tumours. ** p<0.01 by t-test. Data are mean±SD. (J) Frequency of mice with liver metastasis in untreated or irradiated APTKA orthotopic tumours (n=5 mice per group). (K) H&E staining of untreated and irradiated APTKA orthotopic tumours. Scale bars=300 μm. Representative images of αSMA (Green), Vimentin (Blue) and Collagen (Yellow) multiplex immunofluorescence of untreated and irradiated APTKA tumours. Scale bars=400 μm. Sirius red staining of APTKA orthotopic tumours upon radiotherapy. Scale bars=300 μm. (L) Percent of αSMA, Vim and Col1 triple positive cells in untreated (n=9) and irradiated (n=10) APTKA tumours. Data are mean±SD. ** p<0.01 by t-test. (M) Sirius red pixel positivity in untreated (n=7) and irradiated (n=6) APTKA tumours. Data are mean±SD. * p<0.05 by t-test. (N-P) Ex vivo irradiation (5×2Gy) of APTKA and APTK organoids: (N) relative fluorescent units of untreated and irradiated organoids, 6 h post last dose, using resazurin cell viability kit (n=4 independent wells per condition); (O) quantification of the number of fully grown untreated and irradiated organoids 4 days' post first reseeding (n=7 to 9 independent wells per condition); (P) subcutaneous tumour growth in C57BL/6 mice transplanted with untreated or irradiated organoids. Data are mean±SD. N=6 mice per group; p<0.05 by one-way ANOVA followed by Tukey's multiple comparisons test. Representative results from one experiment which has been independently repeated least 3 times.
(A) Schematic representation of the orthotopic transplantation of APTKA mouse organoids into C57BL/6 mice followed by 5×2 Gy radiotherapy of established tumours untreated or treated daily with anakinra (500 μg/day) for 21 days. (B and C) Overall tumour size (mm3) and % invasive area of 5×2Gy radiated APTKA orthotopic tumours 21 days after last irradiation without (n=5) or with (n=4) anakinra treatment (500 μg/day). Data are mean±SD; p<0.05 by t-test. (D) Frequency of mice with liver metastasis upon irradiation of APTKA orthotopic tumours without (n=5) or with (n=4) anakinra treatment (500 μg/day). (E and F) Sirius red staining of untreated (n=3) or anakinra treated (n=4) 5×2 Gy irradiated APTKA tumours. Scale bars=200 μm. Data are mean±SD. *** p<0.001 by t-test. (G, H) αSMA immunofluorescent staining and its quantification of irradiated APTKA orthotopic tumours without (n=5) or with (n=4) anakinra treatment (500 μg/day). Scale bars=200 μm. Data are mean±SD; p<0.05 by t-test. (I) Schematic representation of IL-1α overexpression in APTK organoids by CRISPRa/Cas9. (J) ELISA of IL-1α protein levels in conditioned media from APTK sgctrl and APTK sgIL-1α organoids (n=4 independent wells per group). Data are mean±SD. **** p<0.0001 by t-test. (K) Relative RNA expression of inflammatory genes in fibroblasts treated with conditioned media from APTK sgctrl and APTK sgIL-1α organoids for 24 h (n=5 independent wells per condition). Data are mean±SD. **** p<0.0001 by t-test. Representative results from one experiment which has been independently repeated 2 times. […]

Setting [1] is: anakinra 500 μg/day plus 5×2 Gy.
Where [2] appears, read: anakinra 500 μg/day plus 5×2 Gy, 21 days after last irradiation.

As for “anakinra: Kineret®, an interleukin-1 receptor antagonist”, the APTKA tumour growth entry (anakinra 500 μg/day alone, no irradiation, data not shown) was “did not affect APTKA tumour growth significantly”. Under setting [1], the “metastasis formation (liver)” value is listed as “blocked metastasis formation”, the “number of αSMA+ cells” value is “decreased number of αSMA+cells” and the sirius red staining entry is given as “significant decrease in sirius red staining”. Further, under setting [2], the “invasion (% invasive area)” value was “marked reduction in tumour size and invasion”; the tumour size result is recorded as “marked reduction in tumour size”.
